The record followed here is patent US12329801B2, “Regenerative polypeptides and uses thereof” (JUVENA THERAPEUTICS, INC., priority 2021, dated 2025).

The test system of series [1] is 10 week old dystrophic mice (mdx). Put plainly: Duchenne muscular dystrophy model, 10 week old dystrophic mice (mdx). It is filed as in vivo. As to conditions: 150 μg/kg with 1.2 g/kg sodium butyrate subcutaneously every 24 hours. As to the method: Between 3-6 weeks old, the skeletal muscle of mdx mice undergoes severe necrosis followed by an increase in the activation of satellite cells to promote muscle regeneration. Treatment with IGF2 fusion polypeptide described herein can improve the regeneration process and therefore muscle health. Mice were fed ad libitum and housed under controlled conditions of lighting (12-hour light/12-hour dark) and temperature (22-24° C.). Mice were allowed to acclimate for 3 days prior to the initiation of the experiment. During the acclimation period, the weight, forelimb and both limb grip strength as well as in vivo tetanic force were assessed to determine the baseline strength of each mouse. 10 week old dystrophic mice (mdx) were injected with the IGF2 fusion polypeptide with sodium butyrate subcutaneously for 14 days. At day 7, forelimb and both grip strength are measured as described in Example 4. BrdU was injected on days 12, 13 and 14. On days 13, 14 and 15, forelimb and both limb grip strength and in vivo tetanic force were tested, and an endurance test to determine max distance and max speed was performed using methods described in Example 4.
Mice were euthanized. The right tibialis anterior and gastrocnemius were collected, immersed in Tissue-TEK OCT and then flash frozen in a chilled isopentane bath precooled in liquid nitrogen and stored at −80° C. Tissue was sectioned and stained for Laminin to determine the cross sectional area (CSA) of muscle fibers, for eMyHC to measure new fiber formation and for BrdU to assess the proliferation rate. The left anterior tibialis and gastrocnemius were collected and flash frozen in liquid nitrogen for molecular analysis that include qPCR and western blot.

Series [2] can be described thus: Murine pharmacokinetics, intravenous, ELISA, non-compartment analysis. In kind it is in vivo, mice. As to conditions: mice 10-12 weeks old, dose 10 mg/kg (HSA-IGF2R61A), 600 ug/kg (IGF2). As to the method: Murine pharmacokinetics (PK) represents the absorption, distribution, metabolism, and elimination of drugs from the body. The pharmacokinetic profile of the therapeutic polypeptides were determined in mice (10-12 weeks old). Mice were fed ad libitum and housed under controlled conditions of lighting (12-hour light/12-hour dark) and temperature (22-24° C.). Mice were allowed to acclimate for 3 days prior to the initiation of the experiment. Intravenous (IV) injection in 10-12 weeks old mice. Engineered mitogenic polypeptides concentrations in the samples were measured by ELISA. Various pharmacokinetics will be calculated as well as the absorption/elimination dynamics following different routes of administration.
(An ELISA detects its analyte on a solid surface through an enzyme-linked reagent.)

As to “IGF2: Human IGF2 amino acid sequence, SEQ ID NO: 29”, in series [1], the bothlimb grip strength entry is “effective at improving”, the forelimb grip strength result is reported as “effective at improving”, the total work result is listed as “effective at improving” and the treadmill running distance result is reported as “effective at improving”. Besides, the “treadmill running time to exhaustion” value in series [1] is “effective at improving”. Moreover, the muscle weight entry in series [1] (vs vehicle) is listed as “effective at improving”. This substance also gave a Half-life in series [2] of 2.85 h.
